How the values were obtained:
IL-1β = IL-1β mRNA and protein (ELISA) in frontal cortex and plasma after ethanol intoxication; type: in vivo, Wistar rats; settings: OEA pre-treatment
Method: The animals were treated with intragastric (i.g.) ethanol 3 times a day using an i.g. cannula (16G needle, Fisher Scientific, Waltham, Mass., USA), following a protocol based on a slightly modified standard 4-day alcohol intoxication pattern (Bernier et al., 2002a, b) (FIG. 1A). The ethanol doses were administered every 8 h for a total time of 4 days. The rats treated with ethanol received an initial loading dose of 5 g/kg of ethanol in a 30% solution (w/v) and then a maximum maintenance dose of 3 g/kg, which were determined based on blood ethanol levels (BEL). This repeated standard alcohol intoxication paradigm kept BEL intoxication relatively constant in a range of sedation/ataxia (190 to 430 mg/dl, Table 3), according to the 6-point alcohol intoxication behavior scale (Majchrowicz, 1975). The mean dose of ethanol/rat/day (days 1-4) was 7.06 g/kg, similar to other studies (Obernier et al., 2002a, b). OEA (5 mg/kg, i.p., except initial dose of 10 mg/kg i.p.; synthesized as described in Giuffrida et al., 2000) was dissolved in the vehicle (5% Tween-80 in saline solution) and injected 10 minutes before each of the administrations of ethanol by an intragastric gavage. The anti-inflammatory activity of OEA at 10 mg/kg per intraperitoneal route in the frontal cortex before the injection of LPS (Sayd et al., 2014) was previously referred to. In this study, OEA is repeatedly injected as a pre-treatment before each administration of ethanol. […] The quantitative changes in mRNA levels were estimated by means of RT-PCR, carried out in the presence of the SYBR green primer using a 20-L reaction in a Rotor-Gene (Corbett Research®, Mortlake, NSW, Australia). […] The levels of soluble HMGB1, TNF-α, IL-1β and MCP-1 were determined by means of a commercially available enzyme-linked immunosorbent assay kit (ELISA) (Elabscience Biotechnology Co., Ltd., China, for HMGB-1; RayBiotech®, GA, USA, for TNF-α, IL-1β, and MCP-1). The nuclear/cytosol HMGB1 fraction was determined by means of Western blot analysis.

MD2 = MD2 protein expression in frontal cortex after ethanol intoxication; type: in vivo, Wistar rats; settings: 2-4 h after last ethanol, OEA pre-treatment
Method: The animals were treated with intragastric (i.g.) ethanol 3 times a day using an i.g. cannula (16G needle, Fisher Scientific, Waltham, Mass., USA), following a protocol based on a slightly modified standard 4-day alcohol intoxication pattern (Bernier et al., 2002a, b) (FIG. 1A). The ethanol doses were administered every 8 h for a total time of 4 days. The rats treated with ethanol received an initial loading dose of 5 g/kg of ethanol in a 30% solution (w/v) and then a maximum maintenance dose of 3 g/kg, which were determined based on blood ethanol levels (BEL). This repeated standard alcohol intoxication paradigm kept BEL intoxication relatively constant in a range of sedation/ataxia (190 to 430 mg/dl, Table 3), according to the 6-point alcohol intoxication behavior scale (Majchrowicz, 1975). The mean dose of ethanol/rat/day (days 1-4) was 7.06 g/kg, similar to other studies (Obernier et al., 2002a, b). OEA (5 mg/kg, i.p., except initial dose of 10 mg/kg i.p.; synthesized as described in Giuffrida et al., 2000) was dissolved in the vehicle (5% Tween-80 in saline solution) and injected 10 minutes before each of the administrations of ethanol by an intragastric gavage. […] The autoradiograph was quantified by densitometry (NIH ImageJ® software, National Biosciences, Lincoln, Nebr. USA) and expressed as optical density (OD). […]

## CCCCCCCC/C=C\CCCCCCCC(=O)NCCO [OEA, oleoylethanolamide]
IL-1β; frontal cortex, ELISA
  Ethanol-induced increase in IL-1β protein levels: prevented
IL-1β; frontal cortex
  Ethanol-induced increase in IL-1β mRNA: did not prevent
IL-1β; plasma, ELISA
  Ethanol-induced increase in IL-1β plasma levels: prevented
MD2
  Ethanol-induced increase in MD2 protein: inhibited

Reference: US20190365675A1, “COMPOSITIONS FOR THE PREVENTION AND/OR TREATMENT OF ALCOHOL USE DISORDERS” (SERVICIO ANDALUZ DE SALUD, priority 2016, published 2019)
